Experimental data from patent US10131652B2, “Pyrimidinyloxy benzene derivatives as herbicides” (E. I. DU PONT DE NEMOURS AND COMPANY, priority 2014, dated 2018).
Read-outs that look alike come from different tables or passages of the source.

Key:
Test in all cases: Test E pre-/postemergence plant response
Assay type in all cases: in vivo
[1] = tested on: field poppy (Papaver rhoeas); settings: scale 0 to 100, read-out: Plant response rating, Field Poppy; for pest or weed control at 16 g/ha: 16 g ai/ha; for pest or weed control at 31 g/ha: 31 g ai/ha; for pest or weed control at 62 g/ha: 62 g ai/ha; for pest or weed control at 125 g/ha: 125 g ai/ha
How it was run: (§1)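 Pre-emergence: seeds sown in silt loam soil and sprayed with test chemicals in a non-phytotoxic solvent/surfactant mix. Post-emergence: plants at 2–18 cm (1- to 4-leaf stage) in peat/vermiculite medium treated with the same formulation. Visual rating versus controls after 7–21 days, 0 (no effect) to 100 (complete control).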

[2] = tested on: wild mustard (Sinapis arvensis); settings: Brassica, scale 0 to 100, read-out: Plant response rating, Mustard, Wild; for pest or weed control at 16 g/ha: 16 g ai/ha; for pest or weed control at 31 g/ha: 31 g ai/ha; for pest or weed control at 62 g/ha: 62 g ai/ha; for pest or weed control at 125 g/ha: 125 g ai/ha
How it was run: as §1

[3] = tested on: green foxtail (Setaria viridis); settings: scale 0 to 100, read-out: Plant response rating, Foxtail, Green; for pest or weed control at 16 g/ha: 16 g ai/ha; for pest or weed control at 31 g/ha: 31 g ai/ha; for pest or weed control at 62 g/ha: 62 g ai/ha; for pest or weed control at 125 g/ha: 125 g ai/ha
How it was run: as §1

[4] = tested on: canarygrass (Phalaris minor); settings: scale 0 to 100, read-out: Plant response rating, Canarygrass; for pest or weed control at 16 g/ha: 16 g ai/ha; for pest or weed control at 31 g/ha: 31 g ai/ha; for pest or weed control at 62 g/ha: 62 g ai/ha; for pest or weed control at 125 g/ha: 125 g ai/ha
How it was run: as §1

[5] = tested on: blackgrass (Alopecurus myosuroides); settings: scale 0 to 100, read-out: Plant response rating, Blackgrass; for pest or weed control at 16 g/ha: 16 g ai/ha; for pest or weed control at 31 g/ha: 31 g ai/ha; for pest or weed control at 62 g/ha: 62 g ai/ha; for pest or weed control at 125 g/ha: 125 g ai/ha
How it was run: as §1

[6] = tested on: chamomile (scentless chamomile, Matricaria inodora); settings: Tripleurospermum inodorum, scale 0 to 100, read-out: Plant response rating, Chamomile; for pest or weed control at 16 g/ha: 16 g ai/ha; for pest or weed control at 31 g/ha: 31 g ai/ha; for pest or weed control at 62 g/ha: 62 g ai/ha; for pest or weed control at 125 g/ha: 125 g ai/ha
How it was run: as §1

[7] = tested on: pigweed (Amaranthus retroflexus); settings: scale 0 to 100, read-out: Plant response rating, Pigweed; for pest or weed control at 16 g/ha: 16 g ai/ha; for pest or weed control at 31 g/ha: 31 g ai/ha; for pest or weed control at 62 g/ha: 62 g ai/ha; for pest or weed control at 125 g/ha: 125 g ai/ha
How it was run: as §1

[8] = tested on: deadnettle (henbit deadnettle, Lamium amplexicaule); settings: pre-emergence, Preemergence, scale 0 to 100, read-out: Plant response rating, Deadnettle
How it was run: as §1

[9] = tested on: downy bromegrass (Bromus tectorum); settings: scale 0 to 100, read-out: Plant response rating, Bromegrass, Downy; for pest or weed control at 16 g/ha: 16 g ai/ha; for pest or weed control at 31 g/ha: 31 g ai/ha; for pest or weed control at 62 g/ha: 62 g ai/ha; for pest or weed control at 125 g/ha: 125 g ai/ha
How it was run: as §1

[10] = tested on: windgrass (Apera spica-venti); settings: scale 0 to 100, read-out: Plant response rating, Windgrass; for pest or weed control at 16 g/ha: 16 g ai/ha; for pest or weed control at 62 g/ha: 62 g ai/ha; for pest or weed control at 125 g/ha: 125 g ai/ha
How it was run: as §1

[11] = tested on: winter barley (Hordeum vulgare); settings: scale 0 to 100, read-out: Plant response rating, Barley, Winter; for plant injury at 16 g/ha: 16 g ai/ha; for plant injury at 31 g/ha: 31 g ai/ha; for plant injury at 62 g/ha: 62 g ai/ha; for plant injury at 125 g/ha: 125 g ai/ha
How it was run: as §1

## Fc1cccc(Oc2ncc(Cl)cn2)c1-c1cc(C(F)F)no1 [Compound 144, 5-chloro-2-[2-[3-(difluoromethyl)-5-isoxazolyl]-3-fluorophenoxy]pyrimidine]
[1]; post-emergence, Postemergence
  pest or weed control at 16 g/ha: 100%
  pest or weed control at 31 g/ha: 100%
  pest or weed control at 62 g/ha: 100%
  pest or weed control at 125 g/ha: 100%
[1]; pre-emergence, Preemergence
  pest or weed control at 16 g/ha: 100%
  pest or weed control at 31 g/ha: 100%
  pest or weed control at 62 g/ha: 100%
  pest or weed control at 125 g/ha: 100%
[2]; post-emergence, Postemergence
  pest or weed control at 16 g/ha: 100%
  pest or weed control at 31 g/ha: 100%
  pest or weed control at 62 g/ha: 100%
  pest or weed control at 125 g/ha: 100%
[2]; pre-emergence, Preemergence
  pest or weed control at 16 g/ha: 90%
  pest or weed control at 31 g/ha: 100%
  pest or weed control at 62 g/ha: 100%
  pest or weed control at 125 g/ha: 100%
[3]; post-emergence, Postemergence
  pest or weed control at 16 g/ha: 40%
  pest or weed control at 31 g/ha: 50%
  pest or weed control at 62 g/ha: 80%
  pest or weed control at 125 g/ha: 100%
[3]; pre-emergence, Preemergence
  pest or weed control at 16 g/ha: 20%
  pest or weed control at 31 g/ha: 35%
  pest or weed control at 62 g/ha: 95%
  pest or weed control at 125 g/ha: 100%
[4]; post-emergence, Postemergence
  pest or weed control at 16 g/ha: 35%
  pest or weed control at 31 g/ha: 60%
  pest or weed control at 62 g/ha: 65%
  pest or weed control at 125 g/ha: 85%
[4]; pre-emergence, Preemergence
  pest or weed control at 16 g/ha: 35%
  pest or weed control at 31 g/ha: 80%
  pest or weed control at 62 g/ha: 100%
  pest or weed control at 125 g/ha: 100%
[5]; post-emergence, Postemergence
  pest or weed control at 16 g/ha: 25%
  pest or weed control at 31 g/ha: 50%
  pest or weed control at 62 g/ha: 60%
  pest or weed control at 125 g/ha: 85%
[5]; pre-emergence, Preemergence
  pest or weed control at 16 g/ha: 15%
  pest or weed control at 31 g/ha: 75%
  pest or weed control at 62 g/ha: 98%
  pest or weed control at 125 g/ha: 100%
[6]; post-emergence, Postemergence
  pest or weed control at 16 g/ha: 80%
  pest or weed control at 31 g/ha: 75%
  pest or weed control at 62 g/ha: 80%
  pest or weed control at 125 g/ha: 95%
[6]; pre-emergence, Preemergence
  pest or weed control at 16 g/ha: 15%
  pest or weed control at 31 g/ha: 20%
  pest or weed control at 62 g/ha: 100%
  pest or weed control at 125 g/ha: 100%
[7]; post-emergence, Postemergence
  pest or weed control at 16 g/ha: 98%
  pest or weed control at 31 g/ha: 100%
  pest or weed control at 62 g/ha: 100%
  pest or weed control at 125 g/ha: 100%
[7]; pre-emergence, Preemergence
  pest or weed control at 16 g/ha: 100%
  pest or weed control at 31 g/ha: 100%
  pest or weed control at 62 g/ha: 100%
  pest or weed control at 125 g/ha: 100%
[8]; 16 g ai/ha
  pest or weed control at 16 g/ha: 90%
[8]; 31 g ai/ha
  pest or weed control at 31 g/ha: 100%
[8]; 62 g ai/ha
  pest or weed control at 62 g/ha: 100%
[8]; 125 g ai/ha
  pest or weed control at 125 g/ha: 100%
[9]; post-emergence, Postemergence
  pest or weed control at 16 g/ha: 25%
  pest or weed control at 31 g/ha: 35%
  pest or weed control at 62 g/ha: 40%
  pest or weed control at 125 g/ha: 75%
[9]; pre-emergence, Preemergence
  pest or weed control at 16 g/ha: 10%
  pest or weed control at 31 g/ha: 10%
  pest or weed control at 62 g/ha: 35%
  pest or weed control at 125 g/ha: 55%
[10]; post-emergence, Postemergence
  pest or weed control at 16 g/ha: 10%
  pest or weed control at 62 g/ha: 25%
  pest or weed control at 125 g/ha: 55%
[10]; post-emergence, 31 g ai/ha, Postemergence
  pest or weed control at 31 g/ha: 20%
[10]; pre-emergence, Preemergence
  pest or weed control at 16 g/ha: 10%
  pest or weed control at 62 g/ha: 100%
  pest or weed control at 125 g/ha: 100%
[11]; post-emergence, Postemergence
  plant injury at 16 g/ha: 30%
  plant injury at 31 g/ha: 20%
  plant injury at 62 g/ha: 35%
  plant injury at 125 g/ha: 45%
[11]; pre-emergence, Preemergence
  plant injury at 16 g/ha: 30%
  plant injury at 31 g/ha: 35%
  plant injury at 62 g/ha: 55%
  plant injury at 125 g/ha: 55%
